According to patent publication US7863302B2, “Compounds and methods for modulating FX-receptors” (Eli Lilly and Company, priority 2006, dated 2011):

Columns and labels:
LDLR−/− mice = experiment: LDLR−/− Serum Lipid Modulation; assay type: in vivo; settings: 10 mg/kg once daily by oral gavage for seven days, male LDLR−/− mice on western diet
Method: LDLR−/− Serum Lipid Modulation
Acquire LDLR−/− mice from Jackson Laboratories (Stock number 002207, Bar Harbor, Me., USA). Acclimate animals for one week prior to study initiation. House mice individually in polycarbonate cages with filter tops, and maintain mice on a 12:12 hour light-dark cycle (lights on at 6:00 AM) at 21° C. Provide deionized water ad libitum and maintain for two weeks on ‘western diet’ TD 98137 Diet (42% fat, 0.15% cholesterol, Harlan Teklad) ad libitum. Optimize groups of five ten-week-old male LDLR−/− mice based on serum triglyceride and cholesterol levels. Dose groups once daily by oral gavage with various doses of the test compound for seven days. At the end of the seven-day dosing period, collect blood by tail clip for clinical chemistry assessment. Measure serum triglycerides, glucose, and total cholesterol using standard clinical chemistry instrumentation and reagents (Roche Diagnostic, Indianapolis, Ind., USA). Asphyxiate mice in a CO2 chamber. Perform cardiac puncture to collect blood samples for serum FPLC analysis. Assay pooled serum samples for lipoprotein cholesterol fraction values (VLDL, LDL, HDL) by separation on a size exclusion column (Superose® 6HR, Pharmacia Biotech AB, Uppsala, Sweden) with in-line determination of cholesterol.

[1] = target: T1, human FXR ligand-binding domain (Homo sapiens, UniProt Q96RI1); experiment: FXR-SRC-1 Cofactor Recruitment Assay (Alpha Screen); assay type: biochemical; settings: SRC-1 FXR interaction, 4 hours at room temperature
T1 construct: 6-HIS
T1 sequence (Q96RI1 242-472 isoform Q96RI1-2 limits assumed): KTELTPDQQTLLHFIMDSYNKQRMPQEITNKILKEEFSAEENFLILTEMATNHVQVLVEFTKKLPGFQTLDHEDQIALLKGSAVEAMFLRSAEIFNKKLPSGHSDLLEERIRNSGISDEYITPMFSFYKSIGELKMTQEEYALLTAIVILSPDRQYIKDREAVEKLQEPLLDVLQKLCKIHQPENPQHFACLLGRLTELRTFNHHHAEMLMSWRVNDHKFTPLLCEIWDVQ
T1 sequence (Q15788 600-774 partner limits assumed): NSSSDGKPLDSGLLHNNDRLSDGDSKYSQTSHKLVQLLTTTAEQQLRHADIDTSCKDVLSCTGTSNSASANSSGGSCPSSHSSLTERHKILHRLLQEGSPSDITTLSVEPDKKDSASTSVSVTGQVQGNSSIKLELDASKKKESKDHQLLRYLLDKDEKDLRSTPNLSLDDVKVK
Method: FXR-SRC-1 Cofactor Recruitment Assay
Compounds are tested in concentration-response curves by an FXR-SRC-1 Cofactor Recruitment assay using the Alpha (Amplified Luminescent Proximity Homogeneous Assay) Screen technology according to the manufacturer instructions (Perkin Elmer). Briefly, purified 6-HIS-tagged human FXR ligand-binding domain (amino acids 242-472), purified GST-tagged human SRC-1 nuclear receptor-interacting domain (amino acids 220-394), Nickel Chelate donor beads (Perkin Elmer) and Anti-GST antibody acceptor beads (Perkin Elmer) are mixed together and 12 μL per well is aliquoted into 384 well plates. Add compounds in 3 μL per well for a total assay volume of 15 μL and incubate at room temperature in the dark for 4 hours. After incubation, compounds that bind FXR and induce the interaction between the FXR and SRC-1 would bring the two bead types into proximity generating luminescence that is quantified using a Packard Fusion instrument. Calculate EC50 values for each test compound. Compounds of the invention are found to be effective in the SRC-1 FXR interaction assay with EC50 of about 365-3000 nM.

- EC50 [1]: 1300 nM
Structure (SMILES): Cc1cc(OCc2c(-c3ccccc3OC(F)(F)F)noc2C2CC2)ccc1-c1ccc2c(C(=O)O)cn(C)c2c1 [Example 7, 6-{4-[5-Cyclopropyl-3-(2-trifluoromethoxy-phenyl)-isoxazol-4-ylmethoxy]-2-methyl-phenyl}-1-methyl-1H-indole-3-carboxylic acid]
- lowers total cholesterol (LDLR−/− mice): 63%
- lowers triglycerides (LDLR−/− mice): 61%
